According to patent publication US7109193B2, “Tricyclic diazepines tocolytic oxytocin receptor antagonists” (Wyeth, priority 2001, dated 2006):

Target: T1, human vasopressin V1a receptor subtype (Homo sapiens, UniProt P37288)
T1 construct: host or cells: CHO cells (pZeoSV vector for the Thibonnier line)
Assay: Vasopressin binding in Chinese Hamster Ovary cell membranes expressing human vasopressin V1a subtype receptors
Settings: 100 nM, CHO cell membranes, [3H]Manning ligand, values without parentheses
Description: Vasopressin Binding in Chinese Hamster Ovary Cell Membranes Expressing Human Vasopressin V1a Subtype Receptors
The trypsin is removed by aspiration and the cells dislodged by tapping. Cell Culture medium (e.g. 30 mL for 1:30 split) is immediately added and mixed well to inactivate trypsin. 1 mL of detached cells is added to new culture flasks containing fresh cell culture medium (e.g., into 25 mL per T-150 flask), and mixed gently. The cells are incubated at 37° C. in 5% CO2. The medium is changed at 3 to 4 days interval (or as appropriate). […] All steps are done under sterile conditions. B. Membrane Preparation: The cells are washed twice gently with Hank's Balanced Salt solution (e.g,. use 10 mL per T-150 flask). […] The contents are transferred to centrifuge tubes (50 mL) kept in an ice bath. All subsequent steps are done at 4° C. The tubes are centrifuged at 300×g for 15 min (1380 rpm on SORVAL, Model RT6000D, using the rotor for 50 mL tubes). The supernatant is discarded and the cells suspended in homogenizing buffer(10 mM Tris-HCl containing 0.25 M sucrose and 1 mM EDTA, pH 7.4) ensuring that the volume of the buffer is about ten times the volume of the cell pellet. The cells are pooled into a centrifuge tube (50 mL) and homogenized with a Polytron at setting 6 for 10 sec. The homogenate is transferred into a Potter-Elvjehm homogenizer and homogenized with 3 strokes. The homogenate is centrifuged at 1500×g for 10 min at 4° C. (3100 rpm using SORVAL, model RT6000D, using the rotor for 50 mL tubes). The pellet is discarded. The supernatant is centrifuged at 100,000×g for 60 min. at 4° C. (Beckman L8-80M ultracentrifuge; spin at 37,500 rpm with rotor type 70 Ti for 50 mL tubes; 38,000 rpm with type 80Ti for 15 mL tubes; or 35,800 rpm with rotor type 45Ti). The supernantant is discarded and the pellet suspended in 3 to 4 mL of Tris buffer (50 mM TRIS-HCl, pH 7.4). The protein content is estimated by the Bradford or Lowry method. The volume of the membrane suspension is adjusted with the membrane buffer (50 mM Tris-HCl containing 0.1% BSA and 0.1 mM PMSF) to give 3.0 mg/mL (or as appropriate) of protein. The membranes are aliquoted and stored at −70° C. C. Radioligand Binding Assay: In wells of a 96-well format microtiter plate, is added 90, 110 or 130 μL (to make up a final volume of 200 μL) of assay buffer containing 50 mM of Tris-HCl (pH 7.4), BSA (heat inactivated, protease-free), […], 1 mg % aprotinin, 1 mg % leupeptin, 2 mg % 1,10-phenanthroline, 10 mg % trypsin inhibitor, and 0.1 mM PMSF. The inhibitors are added on the day of the experiment. The components are mixed at room temperature, and then kept in ice bath following adjustment of the pH to 7.4. […] 20 μL of 50% DMSO is added for Manning and other peptide ligands and the assay buffer volume is adjusted accordingly. To each well is added 50 μL of frozen membrane suspension thawed immediately prior to use and diluted in the assay buffer to the required concentration (equivalent to 25 to 50 μg of protein/well as needed). 20 μL of 8 nM [^3H]Manning ligand in the assay buffer, prepared just before use, is added, and incubated at room temperature for 60 min. shaking the plate on a mechanical shaker for the first 15 min. The incubation is stopped by rapid filtration of the plate contents followed by wash with ice-cold buffer (50 mM Tris-HCl, pH 7.4) using a cell harvester (Tomtek and Printed filtermat-B filter paper). The filter paper is thoroughly dried (7–12 min. in a microwave oven) and impregnated with MeltiLex B/H melt-on scintillation wax sheets and the radioactivity counted in a betaplate scintillation counter.
Binding data is either reported as percent inhibition at a certain concentration or if an IC50 was calculated, as a nanomolar concentration.

T1 sequence (P37288 whole entry): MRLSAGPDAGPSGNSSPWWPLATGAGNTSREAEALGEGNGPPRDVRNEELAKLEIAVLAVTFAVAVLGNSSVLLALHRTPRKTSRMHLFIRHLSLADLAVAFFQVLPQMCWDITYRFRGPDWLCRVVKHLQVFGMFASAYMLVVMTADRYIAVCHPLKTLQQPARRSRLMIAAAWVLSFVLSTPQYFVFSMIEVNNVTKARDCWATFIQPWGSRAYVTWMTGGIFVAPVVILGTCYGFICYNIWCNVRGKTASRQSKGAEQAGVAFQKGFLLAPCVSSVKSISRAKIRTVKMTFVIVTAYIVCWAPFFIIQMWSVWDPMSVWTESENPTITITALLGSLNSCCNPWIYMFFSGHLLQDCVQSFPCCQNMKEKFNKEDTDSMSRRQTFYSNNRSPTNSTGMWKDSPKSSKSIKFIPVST

SMILES	inhibition at 0.1 µM [%]	V1a % inhibition @ 100 nM [%]
COc1ccccc1-c1ccc(C(=O)N2Cc3ccc(C(=O)NCCCn4ccnc4)n3Cc3ccccc32)cc1C [Example 123, N-[3-(1H-Imidazol-1-yl)propyl]-10-[(2′-methoxy-2-methyl[1,1′-biphenyl]-4-yl)carbonyl]-10,11-dihydro-5H-pyrrolo[2,1-c][1,4]benzodiazepine-3-carboxamide]	9	–
COc1cc(C(=O)N2Cc3ccc(C(=O)N4CC[C@@H](N(C)C)C4)n3Cc3ccccc32)ccc1-c1ccccc1C [Example 281, [(3R)-3-(Dimethylamino)pyrrolidinyl]{10-[(2-methoxy-2′-methyl[1,1′-biphenyl]-4-yl)carbonyl]-10,11-dihydro-5H-pyrrolo[2,1-c][1,4]benzodiazepin-3-yl}methanone]	–	58
COc1ccccc1-c1ccc(C(=O)N2Cc3ccc(C(=O)NCCCn4ccnc4)n3Cc3ccccc32)cc1OC [Example 132, 10-[(2,2′-Dimethoxy[1,1′-biphenyl]-4-yl)carbonyl]-N-[3-(1H-imidazol-1-yl)propyl]-10,11-dihydro-5H-pyrrolo[2,1-c][1,4]benzodiazepine-3-carboxamide]	2	–
COc1ccccc1-c1ccc(C(=O)N2Cc3ccc(C(=O)N4CCC[C@H]4CN4CCCC4)n3Cc3ccccc32)cc1OC [Example 269, {10-[(2,2′-Dimethoxy[1,1′-biphenyl]-4-yl)carbonyl]-10,11-dihydro-5H-pyrrolo[2,1-c][1,4]benzodiazepin-3-yl}[(2S)-2-(1-pyrrolidinylmethyl)pyrrolidinyl]methanone]	–	−1
Cc1ccccc1-c1ccc(C(=O)N2Cc3ccc(C(=O)N4CCC[C@H]4CN4CCCC4)n3Cc3ccccc32)cc1 [Example 264, {10-[(2′-Methyl[1,1′-biphenyl]-4-yl)carbonyl]-10,11-dihydro-5H-pyrrolo[2,1-c][1,4]benzodiazepin-3-yl}[(2S)-2-(1-pyrrolidinylmethyl)pyrrolidinyl]methanone]	–	67
CN(C)[C@@H]1CCN(C(=O)c2ccc3n2Cc2ccccc2N(C(=O)c2ccc(-c4cccc5ccccc45)cc2Cl)C3)C1 [Example 277, {10-[2-Chloro-4-(1-naphthyl)benzoyl]-10,11-dihydro-5H-pyrrolo[2,1-c][1,4]benzodiazepin-3-yl}[(3R)-3-(dimethylamino)pyrrolidinyl]methanone]	–	8
Cc1ccccc1-c1ccc(C(=O)N2Cc3ccc(C(=O)N4CCC(N5CCCCC5)CC4)n3Cc3ccccc32)cc1 [Example 115, {10-[(2′-Methyl[1,1′-biphenyl]-4-yl)carbonyl]-10,11-dihydro-5H-pyrrolo[2,1-c][1,4]benzodiazepin-3-yl}[4-(1-piperidinyl)-1-piperidinyl]methanone]	11	–
COc1ccccc1-c1ccc(C(=O)N2Cc3ccc(C(=O)N4CCC(N5CCCC5)CC4)n3Cc3ccccc32)cc1OC [Example 145, {10-[(2,2′-Dimethoxy[1,1′-biphenyl]4-yl)carbonyl]-10,11-dihydro-5H-pyrrolo[2,1-c][1,4]benzodiazepin-3-yl}[4-(1-pyrrolidinyl)-l-piperidinyl]methanone]	–	−4
COc1cc(C(=O)N2Cc3ccc(C(=O)N4CC[C@@H](N(C)C)C4)n3Cc3ccccc32)ccc1-n1c(C)ccc1C [Example 322, [(3R)-3-(Dimethylamino)pyrrolidinyl]{10-[4-(2,5-dimethyl-1H-pyrrol-1-yl)-3-methoxybenzoyl]-10,11-dihydro-5H-pyrrolo[2,1-c][1,4]benzodiazepin-3-yl}methanone]	–	12
O=C(c1ccc(-c2cccc3ccccc23)cc1Cl)N1Cc2ccc(C(=O)N3CCC[C@H]3CN3CCCC3)n2Cc2ccccc21 [Example 261, {10-[2-Chloro-4-(1-naphthyl)benzoyl]-10,11-dihydro-5H-pyrrolo[2,1-c][1,4]benzodiazepin-3-yl}[(2S)-2-(1-pyrrolidinylmethyl)pyrrolidinyl]methanone]	–	13
COc1cc(C(=O)N2Cc3ccc(C(=O)N4CCC(N5CCCC5)CC4)n3Cc3ccccc32)ccc1-c1ccccc1C [Example 142, {10-[(2-Methoxy-2′-methyl[1,1′-biphenyl]-4-yl)carbonyl]-10,11-dihydro-5H-pyrrolo[2,1-c][1,4]benzodiazepin-3-yl}[4-(1-pyrrolidinyl)-1-piperidinyl]methanone]	46	–
COc1cccc(-c2cc(OC)c(C(=O)N3Cc4ccc(C(=O)N5CC[C@@H](N(C)C)C5)n4Cc4ccccc43)cc2Cl)c1 [Example 275, {10-[(6-Chloro-3,3′-dimethoxy[1,1′-biphenyl]-4-yl)carbonyl]-10,11-dihydro-5H-pyrrolo[2,1-c][1,4]benzodiazepin-3-yl}[(3R)-3-(dimethylamino)pyrrolidinyl]methanone]	–	9

Further lines, with some results ahead:

inhibition at 0.1 µM [%]	SMILES	V1a % inhibition @ 100 nM [%]
52	COc1cccc(-c2ccc(C(=O)N3Cc4ccc(C(=O)N(C)CCCN(C)C)n4Cc4ccccc43)cc2OC)c1 [Example 108, 10-[(2,3′-Dimethoxy[1,1′-biphenyl]-4-yl)carbonyl]-N-[3-(dimethylamino)propyl]-N-methyl-10,11-dihydro-5H-pyrrolo[2,1-c][1,4]benzodiazepine-3-carboxamide]	–
-1	COc1cc(C(=O)N2Cc3ccc(C(=O)N4CCC(N5CCCC5)CC4)n3Cc3ccccc32)ccc1-c1cccc2ccccc12 [Example 144, {10-[3-Methoxy-4-(1-naphthyl)benzoyl]-10,11-dihydro-5H-pyrrolo[2,1-c][1,4]benzodiazepin-3-yl}[4-(1-pyrrolidinyl)-1-piperidinyl]methanone]	–
2	Cc1cc(C(=O)N2Cc3ccc(C(=O)NCCCn4ccnc4)n3Cc3ccccc32)ccc1-c1ccccc1C(F)(F)F [Example 135, N-[3-(1H-Imidazol-1-yl)propyl]-10-{[2-methyl-2′-(trifluoromethyl)[1,1′-biphenyl]-4-yl]carbonyl}-10,11-dihydro-5H-pyrrolo[2,1-c][1,4]benzodiazepine-3-carboxamide]	–
23	COc1ccccc1-c1ccc(C(=O)N2Cc3ccc(C(=O)NCCN4CCCCC4)n3Cc3ccccc32)cc1 [Example 152, 10-[(2′-Methoxy[1,1′-biphenyl]-4-yl)carbonyl]-N-[2-(1-piperidinyl)ethyl]-10,11-dihydro-5H-pyrrolo[2,1-c][1,4]benzodiazepine-3-carboxamide]	–
16	Cc1ccccc1-c1ccc(C(=O)N2Cc3ccc(C(=O)NCCCn4ccnc4)n3Cc3ccccc32)cc1C [Example 124, 10-[(2,2′-Dimethyl[1,1′-biphenyl]-4-yl)carbonyl]-N-[3-(1H-imidazol-1-yl)propyl]-10,11-dihydro-5H-pyrrolo[2,1-c][1,4]benzodiazepine-3-carboxamide]	–
24	COc1ccccc1-c1ccc(C(=O)N2Cc3ccc(C(=O)N4CCC(N5CCCC5)CC4)n3Cc3ccccc32)cc1 [Example 140, {10-[(2′-Methoxy[1,1′-biphenyl]-4-yl)carbonyl]-10,11-dihydro-5H-pyrrolo[2,1-c][1,4]benzodiazepin-3-yl}[4-(1-pyrrolidinyl)-1-piperidinyl]methanone]	–
9	COc1ccccc1-c1ccc(C(=O)N2Cc3ccc(C(=O)NCCCn4ccnc4)n3Cc3ccccc32)cc1 [Example 126, N-[3-(1H-Imidazol-1-yl)propyl]-10-[(2′-methoxy[1,1′-biphenyl]-4-yl)carbonyl]-10,11-dihydro-5H-pyrrolo[2,1-c][1,4]benzodiazepine-3-carboxamide]	–
